Results from EP0498705A1, “Phenol ethers derivatives, their preparation and their therapeutical use” (SYNTHELABO, priority 1991, dated 1992).

Assays:
[1] = molecular target: T1, récepteurs β₁ adrénergiques (Cavia porcellus, UniProt H0W3H1); test: Blockade of β1 adrenergic receptors in vitro: isoprenaline concentration-effect curves on atrial rate of isolated right atria (Schild analysis); type: cell-based, cobaye; conditions: for déplacement des courbes concentration-effet à l'isoprénaline: R(+) at 0,3, 1, 3 µM, S(-) at 0,1, 0,3, 1 µM, 30 min before the second curve; for Kb: Schild method, antagonism of isoprenaline on atrial rate, isolated guinea pig right atrium, 32°C, confidence interval in brackets, read-out: pA₂ (converted)
T1 construct: L'oreillette droite est séparée du coeur; from tissue; host or cells: isolated right atrium of male guinea pigs
T1 sequence (H0W3H1 1-470): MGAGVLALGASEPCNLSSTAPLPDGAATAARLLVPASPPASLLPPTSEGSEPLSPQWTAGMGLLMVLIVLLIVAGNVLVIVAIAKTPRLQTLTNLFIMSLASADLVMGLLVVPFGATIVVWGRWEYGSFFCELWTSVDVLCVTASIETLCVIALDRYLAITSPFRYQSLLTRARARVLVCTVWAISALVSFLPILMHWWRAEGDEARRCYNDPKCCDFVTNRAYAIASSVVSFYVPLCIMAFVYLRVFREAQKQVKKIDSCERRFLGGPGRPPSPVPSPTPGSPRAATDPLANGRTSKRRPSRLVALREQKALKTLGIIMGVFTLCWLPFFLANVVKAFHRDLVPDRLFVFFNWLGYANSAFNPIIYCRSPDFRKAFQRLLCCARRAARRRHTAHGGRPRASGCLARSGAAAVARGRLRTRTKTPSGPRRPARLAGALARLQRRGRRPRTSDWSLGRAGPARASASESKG
Excerpt: 1. Efficacité des isomères (S)(-) et (R)(+) du cicloprolol en tant que bloquants des récepteurs β₁ adrénergiques dans des conditions in vitro.
Préparation des oreillettes droites.
Des cobayes mâles (race tricolore : élevage LESSIEUX) pesant 200-250 g sont sacrifiés par dislocation cervicale. Les coeurs sont rapidement retirés de la cage thoracique et placés dans une solution de Krebs dans laquelle barbote un mélange de 95 % de O₂ et 5 % de CO₂. La composition de cette solution en mM est : NaCl 118; KCl 4,7; CaCl₂ 2,6; KH₂PO₄ 1,2; MgCl₂ 1,2; NaHCO₃ 25; glucose 11,7; acide ascorbique 1,0. L'oreillette droite est séparée du coeur. Sa base est attachée à un crochet monté sur un support et son apex à un autre petit crochet auquel un fil est accroché. La préparation est transférée dans un bain à organe contenant 20 ml de solution de Krebs oxygénée à 32°C et le fil est connecté à un transducteur de force (Grass, modèle : FTO3C). Une tension de repos de 0,5 g est appliquée à l'oreillette et les signaux de force contractile servent à déclencher un cardiotachomètre pour mesurer le rythme atrial. La force contractile et le rythme atrial sont enregistrés sur un polygraphe.
Après une période de stabilisation de 50 minutes, le tissu est soumis à une concentration de 0,01 µM d'isoprénaline puis est lavé à plusieurs reprises pendant 20 minutes. Immédiatement après, la courbe concentration-effet complète est déterminée en additionnant au bain des concentrations de plus en plus fortes d'isoprénaline (demi-intervalles de l'échelle logarithmique) jusqu'à ce que le rythme atrial ne puisse plus augmenter davantage. Chaque concentration successive d'isoprénaline est ajoutée quand la réponse à la concentration précédente atteint un état stable apparent. A la fin de cette courbe concentration-effet, la préparation est lavée toutes les 10 minutes, pendant 30 minutes, pour lui laisser retrouver son rythme de battement minimal. Puis, une deuxième courbe de réponse aux concentrations est effectuée 30 minutes après avoir soumis la préparation aux différentes concentrations de R(+)-cicloprolol (0,3; 1; et 3 µM) ou de S(-)-cicloprolol (0,1; 0,3 et 1 µM). Les modifications maximales du rythme atrial engendrées par chaque concentration d'isoprénaline sont exprimées en pourcentage par rapport à la réponse émise lors d'une concentration supramaximale d'isoprénaline. Ces valeurs sont utilisées pour construire la courbe concentration-effet dans un repère semi-logarithmique. Il faut noter que si le rythme initial au début de la seconde courbe concentration-effet diffère de celle de la 1ère courbe, la réponse maximale utilisée pour calculer les pourcentages est déterminée par la différence entre le rythme initial de l'oreillette avant l'initiation de la seconde courbe concentration-effet et le rythme atteint par l'oreillette après l'addition de la plus grande concentration d'isoprénaline lors de la première courbe de réponse.
Le logarithme changé de signe de la concentration d'isoprénaline produisant 50 % de l'effet maximal (pD₂) est calculé pour chaque courbe de réponse avant et après chaque concentration de S(-) ou de R(+)-cicloprolol. Les valeurs logarithmiques (concentration ratio-1) sont portées sur l'ordonnée en fonction du logarithme négatif de la concentration d'antagoniste. (Arunlakshana et Schild, Br. J. Pharmacol. 14, 48-54, 1959). […]

Rat amyélé = test: Partial β-agonist activity in vivo: heart rate increase in the pithed rat after cumulative i.v. doses; conditions: for ED (50 beats per minute increase): iv, dose giving a heart rate increase of 50 beats per minute, pithed rat, i.v., read-out: DE₅₀; for augmentation maximale de fréquence cardiaque (effet agoniste partiel): pithed anaesthetised rat, cumulative i.v. doses
Method: 2. Propriétés β-agonistes partielles des isomères (S)(-) et (R)(+) du cicloprolol.
L'activité β-agoniste partielle des deux énantiomères du cicloprolol, a été étudiée in vivo chez le Rat amyélé. Des rats (Spraque-Dawley; Charles River, France) mâles de 250 g environ sont anesthésiés au pentobarbital sodique (55 mg/kg i.p.), amyélés puis placés sous respiration artificielle. La pression artérielle est captée par voie sanglante au niveau de la carotide et l'onde pulsatile alimente un tachographe gui permet de mesurer la fréquence cardiaque. Les composés sont injectés par voie intraveineuse au niveau de la veine fémorale. Ces rats amyélés présentent une fréquence cardiaque réduite d'environ 30 % par rapport à celle de rats intacts anesthésiés. L'activité agoniste partielle des énantiomères est déterminée par l'injection de doses cumulatives des énantiomères. On détermine la dose permettant une augmentation de la fréquence cardiaque de 50 battements par minute (DE₅₀) ainsi que le maximum de l'effet.

[2] = Cardiac stimulant activity in man; type: in vivo, homme; conditions: no method or data given

## CC(C)NC[C@@H](O)COc1ccc(OCCOCC2CC2)cc1 [(R)(+)-cicloprolol, (R)-(+)-1-[4-[2(cyclopropylméthoxy)éthoxy]phénoxy]-3-[(1-méthyléthyl)amino]propan-2-ol]
[1]
  déplacement des courbes concentration-effet à l'isoprénaline: déplacent vers la droite les courbes concentration-effet à l'isoprénaline de façon parallèle et sans changer la réponse maximale
  Kb: 240 nM
Rat amyélé
  ED (50 beats per minute increase): 122 ± 2 µg/kg
  augmentation maximale de fréquence cardiaque (effet agoniste partiel): 113 ± 5 bat/min

## CC(C)NC[C@H](O)COc1ccc(OCCOCC2CC2)cc1 [(S)(-)-cicloprolol, (S)-(-)-1-[4-[2-(cyclopropylméthoxy)éthoxy]phénoxy]-3-[(1-méthyléthyl)amino]propan-2-ol]
[1]
  déplacement des courbes concentration-effet à l'isoprénaline: déplacent vers la droite les courbes concentration-effet à l'isoprénaline de façon parallèle et sans changer la réponse maximale
  Kb: 36.3 nM
[1]; antilog(7,44 - 6,62), ratio of the pA₂ values
  fois plus puissant que le (R)(+)-cicloprolol, comme antagoniste des récepteurs β₁ adrénergiques: 6,6 fois
Rat amyélé
  ED (50 beats per minute increase): 4.6 ± 0.1 µg/kg
  augmentation maximale de fréquence cardiaque (effet agoniste partiel): 107 ± 3 bat/min

## CC(C)NCC(O)COc1ccc(OCCOCC2CC2)cc1 (stereo not drawn) [cicloprolol, 1-[4-[2-(cyclopropylméthoxy)éthoxy]phénoxy]-3-[(1-méthyléthyl)amino]propan-2-ol]
[2]
  activité stimulante cardiaque: a été confirmée chez l'homme

## CC(C)NCC(O)c1ccc(O)c(O)c1 (stereo not drawn) [isoprénaline, reference compound]
Rat amyélé
  ED (50 beats per minute increase): 0.02 µg/kg
  augmentation maximale de fréquence cardiaque (effet agoniste partiel): ~140 bat/min
